Measurements: patent US7026339B2, “Inhibitors of HCV NS5B polymerase” (priority 2003, dated 2006)

test system: HuH-7 replicon cells 5–15 and 9–13 (HCV replication); experiment: Inhibition of viral replication in HuH-7 replicon cells (HCV RNA / GAPDH RNA by multiplex RT-PCR); type: cell-based; settings: Hepatitis C virus, 72 h; inhibiting 50% of replication; HuH-7 replicon cells, 3 days; read-out: IC50
Procedure: Compounds were evaluated for inhibition of viral replication according to published procedures (Bartenschlager, R., et. al., Science, 1999, 285, 110) with modifications as follows.
HuH-7 replicon cells 5–15 and 9–13 were cultured in Dulbecco's minimal essential medium (DMEM) containing high glucose and supplemented with 10% fetal bovine serum (FBS), L-glutamine (2 mM), non-essential amino acids (1×), Penicillin (100 IU/mL)/Streptomycin (100 μg/mL) and G418 (Geneticin, 750 μg/mL). Unless otherwise specified, all media components were obtained from Invitrogen. Replicon cell line stocks were maintained as sub-confluent monolayers by passaging every Monday (1:6 split) and Thursday (1:10 split) and incubated at 37° C. with 5% CO2. Tissue culture plates (96-well white clear bottom plates, Corning #3610) were seeded at 7×10^3 cells/well and incubated for 24 hours prior to addition of the compounds.
Compounds in dry powder form were diluted in DMSO (30 mM stock). Serial dilutions of each Compound in DMSO (10 mM–0.1 mM) were performed in a 96-well polypropylene plate using a microtiter format. Culture media (200 μl) was added to the corresponding wells of a sterile 96-well round bottom plate. Diluted compound (2 μl) was added to the corresponding wells of the medial plate (final compound concentrations: 100 μM–1 μM). Culture media was removed from the corresponding wells of the 96-well plate containing the replicon cells and 150 μl diluted compound added. Media containing 1% DMSO and a serially diluted IFN were included on each plate. The cultures were incubated at 37° C. with 5% CO2 for 3 days. Cultures were observed visually for cytotoxicity or compound precipitation prior to RNA extraction described below.
Total cellular RNA was extracted by spin column technology (RNeasy 96, Qiagen) using the vacuum methodology according to the manufacturer's protocol. In brief, culture media was removed and 100 μl RLT lysis buffer containing 0.14M β-mercaptoethanol (β-ME) was added to each well. The plate was kept flat on the laboratory bench and shaken vigorously to lyse the cells. An equal volume of 70% ETOH was mixed with the lysate and added to the corresponding columns of the RNeasy 96-well plate. Vacuum was applied to draw the lysate through the filters. After ventilating the plate, buffer RW1 (1 mL) was drawn through each column. The waste tray was emptied and the filters washed twice with buffer RPE (1 mL/wash). After ventilating the tray, the RNeasy plate was removed and the bottom of the plate struck several times on a stack of paper towels to remove excess wash buffer. The waste tray was removed from the vacuum apparatus and the RNeasy 96-well plate dried by applying vacuum for 10 minutes. Total cellular RNA was eluted from the columns with two washes of 60 μl RNase-free water.
Relative quantitative multiplex RT-PCR was performed using TaqMan (TM) EZ RT Core Reagent kit (Perkin Elmer) according to the manufacturer's protocol (PE Applied Biosystems User Bulletin #2). Primer 061 (NT 61–82) and 139 (NT 139–158) amplifying a short region in the 5′ untranslated region of the HCV genome were utilized at 300 nM final concentrations. Probe #3 (NT 97–119) labeled with FAM reporter dye was utilized at 200 nM final concentration. Pre-developed human GAPDH primers and probe labeled with VIC reporter dye were obtained from PE Applied Biosystems (# 4310884E) and used according to the manufacturer's protocol. TM RT-PCR master mix was prepared containing the above primers/probe for both target RNA. Total cellular RNA (2 μl) was added to the reaction tubes of a 96-well optical plate that corresponded to the wells of the replicon culture plate. The final volume of each reaction was 50 μl. A standard curve was prepared from ten-fold serial dilutions of total cellular RNA extracated from 10^6 replicon cells and eluted in 30 μl RNase-free water. […]

**Q.** For `O=S(=O)(Cc1cccc(Cl)c1)N/N=C/c1ccccc1OS(=O)(=O)c1ccc(C(F)(F)F)cc1` [Compound 250, 2-((E)-[2-[(3-chlorobenzyl)sulfonyl]hydrazono}methyl)-phenyl 4-(trifluoromethyl)benzenesulfonate], which IC50 is on record?
**A.** Its IC50 is 5 to 50 µM.

**Q.** How did the IC50 turn out when `O=S(=O)(N/N=C/c1ccccc1OS(=O)(=O)c1ccc(C(F)(F)F)cc1)c1ccccc1` [Compound 255, 2-{(E)-[2-(phenylsulfonyl)hydrazono]methyl}phenyl4-(trifluoromethyl)benzenesulfonate] was run?
**A.** Its IC50 is 5 to 50 µM.

**Q.** Which IC50 does the source give for `O=C(Cc1cccc(Cl)c1)N/N=C/c1ccc(F)cc1OS(=O)(=O)c1ccc(C(F)(F)F)cc1` [Compound 211, 2-((E)-{[(3-chlorophenyl)acetyl]hydrazono}methyl)-5-fluorophenyl 4-(trifluoromethyl)benzenesulfonate] here?
**A.** The IC50 was 5 to 50 µM.

**Q.** How did the IC50 turn out when `CCc1ccc(S(=O)(=O)N/N=C/c2ccccc2OS(=O)(=O)c2ccc(C(F)(F)F)cc2)cc1` [Compound 105, 2-((E)-{2-[(4-ethylphenyl)sulfonyl]hydrazono}methyl)-phenyl 4-(trifluoromethyl)benzenesulfonate] was run?
**A.** The IC50 was 5 to 50 µM.

**Q.** How did the IC50 turn out when `COc1cc(CC(=O)N/N=C/c2ccccc2OS(=O)(=O)c2ccc(C(F)(F)F)cc2)cc(OC)c1OC` [Compound 55, 2-((E)-{2-[2-(3,4,5-trimethoxyphenyl)acetyl]hydrazono}methyl)-phenyl 4-(trifluoromethyl)benzenesulfonate] was run?
**A.** Its IC50 is greater than 50 µM.

**Q.** With `O=C(Cc1ccccc1SC(F)(F)F)N/N=C/c1ccccc1OS(=O)(=O)c1ccc(C(F)(F)F)cc1` [Compound 25, 2-{(E)-[2-(2-{2-[(trifluoromethyl)thio]-phenyl}acetyl)hydrazono]methyl}phenyl 4-(trifluoromethyl)benzenesulfonate] as the compound, how does the IC50 read?
**A.** Its IC50 is less than 5 µM.

**Q.** For `COc1cc(OC)c(CC(=O)N/N=C/c2ccccc2OS(=O)(=O)c2ccc(C(F)(F)F)cc2)c(OC)c1` [Compound 66, 2-((E)-{2-[2-(2,4,6-trimethoxyphenyl)acetyl]hydrazono}methyl)-phenyl 4-(trifluoromethyl)benzenesulfonate], which IC50 is on record?
**A.** Its IC50 is 5 to 50 µM.

**Q.** How did the IC50 turn out when `N#Cc1ccc(S(=O)(=O)Oc2ccccc2/C=N/NC(=O)Cc2ccccc2)cc1` [Compound 115, 2-{(E)-[2-(2-phenylacetyl)hydrazono]methyl}phenyl 4-cyanobenzenesulfonate] was run?
**A.** The IC50 was 5 to 50 µM.

**Q.** How did the IC50 turn out when `COc1cccc(CC(=O)N/N=C/c2cccc(Cl)c2OS(=O)(=O)c2ccc(C)cc2)c1` [Compound 180, 2-chloro-6-((E)-{[(3-methoxyphenyl)acetyl]hydrazono}methyl)-phenyl 4-methylbenzenesulfonate] was run?
**A.** Its IC50 is less than 5 µM.

**Q.** With `O=C(Cc1cccc(F)c1)N/N=C/c1ccccc1OS(=O)(=O)c1ccc(C(F)(F)F)cc1` [Compound 48, 2-((E)-{2-[2-(3-fluorophenyl)acetyl]hydrazono}methyl)-phenyl 4-(trifluoromethyl)benzenesulfonate] as the compound, how does the IC50 read?
**A.** Its IC50 is less than 5 µM.

**Q.** Which IC50 does the source give for `O=C(Cc1ccc2c(c1)OCO2)N/N=C/c1ccccc1OS(=O)(=O)c1ccc(C(F)(F)F)cc1` [Compound 43, 2-((E)-{2-[2-(1,3-benzodioxol-5-yl)acetyl]hydrazono}methyl)phenyl 4-(trifluoromethyl)benzenesulfonate] here?
**A.** The IC50 was less than 5 µM.

**Q.** With `CCCc1ccc(S(=O)(=O)Oc2ccccc2/C=N/NC(=O)Cc2cccc(OC)c2)cc1` [Compound 184, 2-((E)-{2-[2-(3-methoxyphenyl)acetyl]hydrazono}methyl)-phenyl 4-propylbenzenesulfonate] as the compound, how does the IC50 read?
**A.** Its IC50 is less than 5 µM.

**Q.** `O=C(Cc1c(F)cccc1F)N/N=C/c1ccccc1OS(=O)(=O)c1ccc(C(F)(F)F)cc1` [Compound 28, 2-((E)-{2-[2-(2,6-difluorophenyl)acetyl]hydrazono}methyl)-phenyl 4-(trifluoromethyl)benzenesulfonate] was tested. Which IC50 did it give?
**A.** Its IC50 is less than 5 µM.

**Q.** Which IC50 does the source give for `O=C(Cc1ccc(Br)cc1)N/N=C/c1ccccc1OS(=O)(=O)c1ccc(C(F)(F)F)cc1` [Compound 52, 2-((E)-{2-[2-(4-bromophenyl)acetyl]hydrazono}methyl)-phenyl 4-(trifluoromethyl)benzenesulfonate] here?
**A.** The IC50 was less than 5 µM.

**Q.** How did the IC50 turn out when `COc1cccc(CC(=O)N/N=C/c2ccccc2OS(=O)(=O)c2ccc(C(F)(F)F)cc2)c1OC` [Compound 24, 2-((E)-{2-[2-(2,3-dimethoxyphenyl)acetyl]hydrazono}methyl)-phenyl 4-(trifluoromethyl)benzenesulfonate] was run?
**A.** Its IC50 is less than 5 µM.

**Q.** `COc1cccc(CC(=O)N/N=C/c2ccccc2OS(=O)(=O)c2ccc(N3CCOCC3)nc2)c1` [Compound 216, 2-((E)-{2-[2-(3-methoxyphenyl)acetyl]hydrazono}methyl)-phenyl 6-morpholin-4-ylpyridine-3-sulfonate] was tested. Which IC50 did it give?
**A.** Its IC50 is 5 to 50 µM.

**Q.** With `O=C(Cc1cc(C(F)(F)F)cc(C(F)(F)F)c1)N/N=C/c1ccccc1OS(=O)(=O)c1ccc(C(F)(F)F)cc1` [Compound 39, 2-[(E)-(2-{2-[3,5-bis(trifluoromethyl)phenyl]acetyl}hydrazono)-methyl]phenyl 4-(trifluoromethyl)benzenesulfonate] as the compound, how does the IC50 read?
**A.** The IC50 was less than 5 µM.

**Q.** Which IC50 does the source give for `COc1cccc(CC(=O)N/N=C/c2ccccc2OS(=O)(=O)c2ccc(-c3cc(C(F)(F)F)n(C)n3)s2)c1` [Compound 226, 2-((E)-{2-[2-(3-methoxyphenyl)acetyl]hydrazono}methyl)-phenyl 5-[1-methyl-5-(trifluoromethyl)-1H-pyrazol-3-yl]thiophene-2-sulfonate] here?
**A.** The IC50 was less than 5 µM.

**Q.** `COc1cccc(CC(=O)N/N=C/c2cccnc2OS(=O)(=O)c2ccc(C)cc2)c1` [Compound 181, 3-((E)-{2-[2-(3-methoxyphenyl)acetyl]hydrazono}methyl)-pyridin-2-yl 4-methylbenzenesulfonate] was tested. Which IC50 did it give?
**A.** Its IC50 is 5 to 50 µM.

**Q.** For `COc1cccc(CC(=O)N/N=C/c2cc(C)ccc2OS(=O)(=O)c2ccc(C(F)(F)F)cc2)c1` [Compound 171, 2-((E)-{[(3-methoxyphenyl)acetyl]hydrazono}methyl)-4-methylphenyl 4-(trifluoromethyl)benzenesulfonate], which IC50 is on record?
**A.** Its IC50 is less than 5 µM.

**Q.** Which IC50 does the source give for `O=C(Cc1cccc(Cl)c1)N/N=C/c1ccccc1NS(=O)(=O)c1ccc(C(F)(F)F)cc1` [Compound 242, N-[2-((E)-{[(3-chlorophenyl)acetyl]hydrazono}methyl)-phenyl]-4-(trifluoromethyl)benzenesulfonamide] here?
**A.** The IC50 was greater than 50 µM.

**Q.** `O=C(N/N=C/c1ccccc1OS(=O)(=O)c1ccc(C(F)(F)F)cc1)c1ccc(Cl)cc1Cl` [Compound 74, 2-{(E)-[2-(2,4-dichlorobenzoyl)hydrazono]methyl}phenyl4-(trifiuoromethyl)benzenesulfonate] was tested. Which IC50 did it give?
**A.** The IC50 was less than 5 µM.

**Q.** Which IC50 does the source give for `O=C(Cc1ccccc1)N/N=C/c1ccccc1OS(=O)(=O)c1ccc(C(F)(F)F)cc1` [Compound 123, 2-{(E)-[2-(2-phenylacetyl)hydrazono]methyl}phenyl 4-(trifluoromethyl)benzenesulfonate] here?
**A.** The IC50 was less than 5 µM.

**Q.** With `Cc1ccc(S(=O)(=O)Oc2ccccc2/C=N/NC(=O)Cc2cccc(Cl)c2)cc1` [Compound 147, 2-((E)-{2-[2-(3-chlorophenyl)acetyl]hydrazono}methyl)-phenyl 4-methylbenzenesulfonate] as the compound, how does the IC50 read?
**A.** Its IC50 is less than 5 µM.

**Q.** How did the IC50 turn out when `O=C(Cc1cccc(N2CCCC2)c1)N/N=C/c1ccccc1OS(=O)(=O)c1ccc(C(F)(F)F)cc1` [Compound 98, 2-((E)-{2-[2-(3-pyrrolidin-1-ylphenyl)acetyl]hydrazono}methyl)phenyl4-(trifluoromethyl)benzenesulfonate] was run?
**A.** Its IC50 is 5 to 50 µM.
